“Also recorded” adds a separate entry of the source. Where no end group is shown, it is not given here.
Test system: eosinophils
Assay: Eosinophils in lung parenchyma and BALF after in vivo treatment (flow cytometry)
Set-up: species or system mouse
Protocol: Mice and in vivo ILC activation. C57Bl/6J mice were purchased from the Jackson Laboratory. Nmur1-LacZ reporter mice with a LacZ cassette knocked into the Nmur1 locus were rederived from Nmur1^tm1.1(KOMP)Vleg sperm obtained from the trans-NIH Knock-Out Mouse Project (KOMP) Repository. Mice were housed under specific-pathogen-free conditions. For experiments, mice were matched for sex and age, and most mice were 6-10 weeks old. […] The total administered volume was 20 μl for all conditions. Mice were randomly assigned to treatment groups after matching for sex and age. […] Mice were treated intranasally with 10 μg HDM on day 0, 7, 8, and 9, prior to sacrifice on day 10. All experiments were conducted in accordance with animal protocols approved by the Harvard Medical Area Standing Committee on Animals or BWH IACUC.
Flow cytometry. […] Cells were stained on ice with antibodies for surface molecules and the live/dead marker 7AAD and analyzed on a LSRFortessa (BD Biosciences). […]
Lung analysis. […] BALF was centrifuged, and the supernatant was used for analyzing cytokine levels and the cell pellet was resuspended, counted, and used for flow cytometry. […] Where indicated, cells were diluted in 10% Trypan Blue and viable cells counted using a hemocytometer. […]

Question: Which results are given for “Neuromedin U (FRVDEEFQSPFASQSRGYFLFRPRN-NH2; listed as Homo sapiens) [NMU, neuropeptide ligand of Nmur1 (US Biological)]”?
Answer: eosinophils in BALF (intranasal daily for 3 days (500 ng IL-25, 20 μg NMU)): only a mild increase; also recorded: small increase; eosinophils in lung parenchyma (intranasal daily for 3 days (500 ng IL-25, 20 μg NMU; FIG. 11: 250 ng IL-33, 10 μg NMU)): did not increase
